# Where two headings read alike, the source gives them in different places.
# How the values were obtained:
# Taxadiene Synthase (TDS) = target: T1, Taxadiene Synthase (TDS) (Taxus brevifolia, UniProt Q41594); assay: TDS activity by pyrophosphate assay; format: biochemical; details: 30° C., pH 7.4
# T1 construct: truncated first 60 amino acids, methionine added; made in house; host or cells: E. coli BL21 (DE3)
# T1 sequence (Q41594 61-862 limits assumed): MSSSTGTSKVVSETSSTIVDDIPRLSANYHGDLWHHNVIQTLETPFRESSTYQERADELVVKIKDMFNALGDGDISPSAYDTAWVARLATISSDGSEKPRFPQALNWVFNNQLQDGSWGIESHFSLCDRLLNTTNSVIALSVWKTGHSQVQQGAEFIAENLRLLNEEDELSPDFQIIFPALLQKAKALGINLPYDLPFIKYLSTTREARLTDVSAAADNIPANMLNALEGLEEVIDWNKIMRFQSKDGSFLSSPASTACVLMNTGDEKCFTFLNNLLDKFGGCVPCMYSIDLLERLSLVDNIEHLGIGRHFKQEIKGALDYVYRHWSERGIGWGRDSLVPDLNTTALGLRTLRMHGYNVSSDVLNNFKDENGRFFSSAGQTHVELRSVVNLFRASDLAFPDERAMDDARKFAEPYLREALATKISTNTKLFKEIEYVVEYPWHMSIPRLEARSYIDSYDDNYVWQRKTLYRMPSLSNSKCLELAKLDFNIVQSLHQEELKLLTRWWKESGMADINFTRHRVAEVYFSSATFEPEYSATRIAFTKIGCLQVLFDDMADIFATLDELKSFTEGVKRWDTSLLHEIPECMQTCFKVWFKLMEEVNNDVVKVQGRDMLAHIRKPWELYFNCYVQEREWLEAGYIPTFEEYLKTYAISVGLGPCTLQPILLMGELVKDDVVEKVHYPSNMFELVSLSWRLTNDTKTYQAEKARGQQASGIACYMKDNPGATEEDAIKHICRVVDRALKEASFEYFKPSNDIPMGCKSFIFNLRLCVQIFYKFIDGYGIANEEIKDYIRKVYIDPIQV
# [1] = target: Farnesyl pyrophosphate synthase (IspA) (Escherichia coli, UniProt P22939); details: Ref Ku et al., 2005, Weaver et al., 2015, cited from earlier work
# [2] = test system: Geranylgeranyl pyrophosphate synthase (GGPPS); details: reported elsewhere (Hefner et al., 1998); cited from earlier work
# [3] = target: Geranylgeranyl pyrophosphate synthase (GGPPS) (Taxus canadensis, UniProt Q9ZPM3); assay: GGPPS activity by pyrophosphate formation (EnzChek pyrophosphate assay); format: biochemical; details: reaction IPP + FPP; IPP varied with FPP held at 100 μM
# Description: A single colony from each strain containing one plasmid for the expression of a single enzyme was inoculated into 5 mL of sterile LB media (BD Sciences) with kanamycin and grown overnight at 37° C. One milliliter was then inoculated into a 1 L flask containing 200 mL of sterile SOB media (AMERSCO) with kanamycin. The culture was grown at 30° C. until an optical density (OD) of 0.4-0.6 (λ=600 nm). At this point protein production was induced by the addition of IPTG for a final concentration of 0.1 mM and continued at 30° C. for 3 h. Cells were harvested by centrifugation at 3750 rpm in an Allegra X12R centrifuge (Beckman-Coulter). […] Enzymes were then exchanged into 50 mM Tris-HCl pH 7.5 using 10 kDa Microseps (Millipore) by centrifugation and repeated buffer exchanges until the imidazole was calculated to be under 1 mM. […] Enzyme concentration was determined using a bicinchoninic acid (BCA) assay kit from Pierce using bovine serum albumin as a standard (BSA). […] The kinetics for CK were previously determined as described. The kinetics for IPK were determined by ATP consumption using a pyruvate kinase (PK) lactate dehydrogenase (LDH) coupled assay (FIGS. 16A & 16B). […] NADH was made fresh each time and the appropriate concentration was determined by constructing a standard curve using a SpectraMax M3 and selecting the highest value in the linear range. […]
# CK = target: T2, CK (Saccharomyces cerevisiae, UniProt P20485); assay: Metabolic control analysis (lin-log elasticities) of multi-enzyme perturbation study; format: biochemical; details: lin-log kinetics, 60 min, 5 mM isoprenol, 10 mM ATP
# T2 construct: S. cerevisiae (AAA34499.1), codon optimized; made in house; host or cells: E. coli BL21 (DE3)
# T2 sequence (P20485 1-582): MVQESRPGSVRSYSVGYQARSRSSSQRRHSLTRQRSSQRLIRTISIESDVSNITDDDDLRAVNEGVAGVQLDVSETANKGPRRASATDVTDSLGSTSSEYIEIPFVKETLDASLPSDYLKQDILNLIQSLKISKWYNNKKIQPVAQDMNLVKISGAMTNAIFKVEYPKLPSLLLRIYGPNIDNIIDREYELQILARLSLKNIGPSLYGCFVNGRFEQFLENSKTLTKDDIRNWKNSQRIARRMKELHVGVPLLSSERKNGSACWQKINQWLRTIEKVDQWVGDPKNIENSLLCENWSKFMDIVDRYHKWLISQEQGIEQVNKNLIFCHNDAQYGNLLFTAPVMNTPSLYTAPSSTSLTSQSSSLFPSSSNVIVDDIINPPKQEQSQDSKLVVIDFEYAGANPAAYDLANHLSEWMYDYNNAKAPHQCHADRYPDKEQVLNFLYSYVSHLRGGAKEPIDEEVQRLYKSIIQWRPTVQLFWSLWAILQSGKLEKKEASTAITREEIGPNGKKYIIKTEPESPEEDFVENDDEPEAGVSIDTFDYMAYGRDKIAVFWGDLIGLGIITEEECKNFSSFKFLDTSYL
# Description: (§1) In order to identify a PSS, an in vitro reaction was run, using the optimal enzyme concentrations, as predicted from the initial perturbation study, using a “main interactions only” linear regression model. A time profile of metabolic intermediate concentrations was constructed (FIG. 32). […] The reaction was stopped at 60 min in the repeat experiment.
# (§2) [formula] where i represents the unit vector, v represents the relative flux compared to the reference state flux J^0, E^x0 represents the elasticity matrix for the metabolic intermediate concentrations (x^0) in relation to the enzyme concentration compared to the reference state as designed by e/e^0 and the relative intermediate metabolic concentrations compared to the reference state (x/x^0).
# (§3) By applying this model to the data generated in the large perturbation study and alternating the designated reference state, 25 sets of elasticities were generated, using the maximum connectivity assumption to calculate the elasticity of every enzyme for each measured metabolite.
# [4] = target: T3, isopentenyl phosphate kinase (IPK) (Arabidopsis thaliana, UniProt Q8H1F7); assay: IPK kinetics by ATP consumption, PK-LDH coupled NADH assay; format: biochemical; details: 10 mM ATP, 30° C., pH 7.4
# T3 construct: Arabidopsis thaliana (AAN12957.1), codon optimized; made in house; host or cells: E. coli BL21 (DE3)
# T3 sequence (Q8H1F7 1-332): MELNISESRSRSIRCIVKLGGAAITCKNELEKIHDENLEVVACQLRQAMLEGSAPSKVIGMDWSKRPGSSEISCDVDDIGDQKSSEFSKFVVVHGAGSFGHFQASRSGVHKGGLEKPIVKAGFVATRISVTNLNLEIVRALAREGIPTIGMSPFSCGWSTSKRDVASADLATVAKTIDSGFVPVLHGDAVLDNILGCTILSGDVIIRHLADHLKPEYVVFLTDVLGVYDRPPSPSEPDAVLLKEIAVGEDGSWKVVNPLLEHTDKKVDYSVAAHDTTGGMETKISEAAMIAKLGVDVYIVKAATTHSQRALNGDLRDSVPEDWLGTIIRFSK
# Description: A single colony from each strain containing one plasmid for the expression of a single enzyme was inoculated into 5 mL of sterile LB media (BD Sciences) with kanamycin and grown overnight at 37° C. One milliliter was then inoculated into a 1 L flask containing 200 mL of sterile SOB media (AMERSCO) with kanamycin. The culture was grown at 30° C. until an optical density (OD) of 0.4-0.6 (λ=600 nm). At this point protein production was induced by the addition of IPTG for a final concentration of 0.1 mM and continued at 30° C. for 3 h. Cells were harvested by centrifugation at 3750 rpm in an Allegra X12R centrifuge (Beckman-Coulter). The supernatant was removed and the cell pellets were frozen at −20° C. until purification. Proteins were visualized by SDS-PAGE performed accordingly to the manufacturer's guidelines (Bio-rad). Gradient (4-20%) gels were purchased from Biorad, as were the Kaleidoscope pre-stained protein ladder, Laemmli 4× sample buffer, Tris-glycine-SDS buffer, and mini-protean electrophoresis chambers. Gels were stained using Instant-Blue (Expedeon). Protein concentrations were very roughly estimated from the gel using Image J (NIH) in order to determine an appropriate amount of resin for purification. Protein Purification All purification steps were performed in a single day on ice and in a cold room when possible. Cell pellets were thawed and resuspended in 30 mL of NPI-10 buffer (50 mM NaH2PO4, 300 mM NaCl, 10 mM imidazole, pH 8.0) and supplemented with 0.5 mM PMSF immediately prior to cell lysis. Cells were lysed by 2-3 passages through an EmulsiFlex-C5 high-pressure homogenizer (Avestin). Lysates were then centrifuged at 4 C for 15 min to remove cellular debris. The clarified lysate was loaded onto a Ni-NTA resin (Gold Bio, capacity 50 mg/mL) which was housed in a gravity column (Thermofisher) and was pre-equilibrated with 10 column volumes (CV) of NPI-10 buffer. The column was then washed with 10 CV of NPI-20 buffer (20 mM imidazole). The enzyme was then eluted from the column by 3 CV using NPI-250 buffer (250 mM imidazole). Enzymes were then exchanged into 50 mM Tris-HCl pH 7.5 using 10 kDa Microseps (Millipore) by centrifugation and repeated buffer exchanges until the imidazole was calculated to be under 1 mM. […] Enzyme concentration was determined using a bicinchoninic acid (BCA) assay kit from Pierce using bovine serum albumin as a standard (BSA). […] The kinetics for CK were previously determined as described. The kinetics for IPK were determined by ATP consumption using a pyruvate kinase (PK) lactate dehydrogenase (LDH) coupled assay (FIGS. 16A & 16B). […] NADH was made fresh each time and the appropriate concentration was determined by constructing a standard curve using a SpectraMax M3 and selecting the highest value in the linear range. […]
# IPK = target: T4, IPK (Arabidopsis thaliana, UniProt Q8H1F7); assay: Metabolic control analysis (lin-log elasticities) of multi-enzyme perturbation study; format: biochemical; details: lin-log kinetics, 60 min, 5 mM isoprenol, 10 mM ATP
# T4 construct: Arabidopsis thaliana (AAN12957.1), codon optimized; made in house; host or cells: E. coli BL21 (DE3)
# T4 sequence (Q8H1F7 1-332): T3 sequence (Q8H1F7 1-332)
# Description: as §1, §2, §3
# Sequence of Farnesyl pyrophosphate synthase (IspA) (P22939 whole entry): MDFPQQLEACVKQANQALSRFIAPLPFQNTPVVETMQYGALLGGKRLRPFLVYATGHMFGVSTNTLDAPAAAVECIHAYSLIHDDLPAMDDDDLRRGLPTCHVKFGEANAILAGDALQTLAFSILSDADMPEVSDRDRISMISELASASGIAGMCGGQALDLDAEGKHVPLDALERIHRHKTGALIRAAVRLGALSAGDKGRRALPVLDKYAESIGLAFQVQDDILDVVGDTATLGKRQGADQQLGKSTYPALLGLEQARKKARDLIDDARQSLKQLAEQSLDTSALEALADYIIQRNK
# Sequence of Geranylgeranyl pyrophosphate synthase (GGPPS) (Taxus canadensis, UniProt Q9ZPM3) (Q9ZPM3 entry or part of it): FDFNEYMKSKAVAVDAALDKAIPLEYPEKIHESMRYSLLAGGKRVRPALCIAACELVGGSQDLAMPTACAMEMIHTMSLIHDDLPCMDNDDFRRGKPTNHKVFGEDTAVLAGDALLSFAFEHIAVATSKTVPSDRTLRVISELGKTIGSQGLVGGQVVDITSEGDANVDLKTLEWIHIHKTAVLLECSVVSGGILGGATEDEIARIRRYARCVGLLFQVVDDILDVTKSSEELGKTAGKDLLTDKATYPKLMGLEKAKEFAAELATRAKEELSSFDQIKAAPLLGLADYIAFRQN
smiles,measurement,setting,value
"CC(C)=CCC/C(C)=C/CC/C(C)=C/CC/C(C)=C/COP(=O)(O)OP(=O)(O)O [GGPP, geranylgeranyl diphosphate]",Km,Taxadiene Synthase (TDS),43 µM
same,kcat,Taxadiene Synthase (TDS),23.1 S^−1
"C=C(C)CCO[P@@](=O)(O)OP(=O)(O)O [IPP, isopentenyl pyrophosphate]",Km,[1]; reaction IPP + DMAPP,29.3 µM
same,Km,[1]; reaction IPP + GPP,5.5 µM
same,Km,[2],6 µM
same,Km,[3],13.5 µM
"C=C(C)CCOP(=O)(O)O [IP, isopentenyl monophosphate]",effect on CK activity (elasticity),CK,slightly inhibitory
same,Km,[4],21.7 µM
same,kcat,[4],45.5 S^−1
same,effect on IPK activity (elasticity),IPK,stimulatory
